Assay results from patent publication US12461078B2, “Compounds for use in system suitability testing of inert LC systems and columns” (priority 2020, dated 2025).

What was measured:
[1] = cited from earlier work
[2] = Hydrolytic and storage stability of nucleotide analog; assay type: physicochemical

SMILES | Log P [1] | resistance to hydrolysis / storage stability [2]
Nc1ncnc2c1ncn2[C@@H]1O[C@H](COP(=O)(O)OP(=O)(O)OP(=O)(O)O)[C@@H](O)[C@H]1O [ATP, adenosine-5′-triphosphate] | −5.5 | –
Nc1ncnc2c1ncn2[C@@H]1O[C@H](COP(=O)(O)CP(=O)(O)O)[C@@H](O)[C@H]1O [AMPcP, Adenosine 5′-(α, β-methylene)diphosphate] | −4.8 | resistant to hydrolysis and be stable for long-term storage and repeat use
